#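 Five compound concentrations were applied to cells in 96-well plates for 48 hours; endpoints were derived by simple linear interpolation of the resulting dose-response curve. GI50 = concentration required for 50% inhibition of growth. TGI marks complete inhibition of growth.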
# Experiments:
# Test in all cases: NCI-60 cell line screen, 48 h
# 786-0 renal = system: 786-0 renal
# A498 renal = system: A498 renal
# A549 NSCLC = system: A549 NSCLC
# ACHN renal = system: ACHN renal
# BT-549 breast = system: BT-549 breast
# CAKI-1 renal = system: CAKI-1 renal
# CCRF-CEM leukemia = system: CCRF-CEM leukemia
# COLO 205 colon = system: COLO 205 colon
# DU-145 prostate = system: DU-145 prostate
# EKVX NSCLC = system: EKVX NSCLC
# HCC-2998 colon = system: HCC-2998 colon
# HCT-116 colon = system: HCT-116 colon
# HCT-15 colon = system: HCT-15 colon
# HL-60(TB) leukemia = system: HL-60(TB) leukemia
# HOP-62 NSCLC = system: HOP-62 NSCLC
# HOP-92 NSCLC = system: HOP-92 NSCLC
# HS 578T breast = system: HS 578T breast
# HT29 colon = system: HT29 colon
# IGROV1 ovarian = system: IGROV1 ovarian
# K-562 leukemia = system: K-562 leukemia
# KM12 colon = system: KM12 colon
# LOX IMVI melanoma = system: LOX IMVI melanoma
# M14 melanoma = system: M14 melanoma
# MALME-3M melanoma = system: MALME-3M melanoma
# MCF7 breast = system: MCF7 breast
# MDA-MB-435 = system: MDA-MB-435
# MDA-MB-468 breast = system: MDA-MB-468 breast
# MOLT-4 leukemia = system: MOLT-4 leukemia
# NCI-H226 lung = system: NCI-H226 lung
# NCI-H23 lung = system: NCI-H23 lung
# NCI-H460 lung = system: NCI-H460 lung
# NCI-H522 lung = system: NCI-H522 lung
# NCI/ADR-RES ovarian = system: NCI/ADR-RES ovarian
# OVCAR-3 ovarian = system: OVCAR-3 ovarian
# OVCAR-4 ovarian = system: OVCAR-4 ovarian
# OVCAR-5 ovarian = system: OVCAR-5 ovarian
# OVCAR-8 ovarian = system: OVCAR-8 ovarian
# PC-3 prostate = system: PC-3 prostate
# RPMI-8226 leukemia = system: RPMI-8226 leukemia
# RXF 393 renal = system: RXF 393 renal
# SF-268 CNS = system: SF-268 CNS
# SF-295 CNS = system: SF-295 CNS
# SF-539 CNS = system: SF-539 CNS
# SK-MEL-2 melanoma = system: SK-MEL-2 melanoma
# SK-MEL-28 melanoma = system: SK-MEL-28 melanoma
# SK-MEL-5 melanoma = system: SK-MEL-5 melanoma
# SK-OV-3 ovarian = system: SK-OV-3 ovarian
# SN12C renal = system: SN12C renal
# SNB-19 CNS = system: SNB-19 CNS
# SNB-75 CNS = system: SNB-75 CNS
# SW-620 colon = system: SW-620 colon
# T-47D breast = system: T-47D breast
# TK-10 renal = system: TK-10 renal
# U251 CNS = system: U251 CNS
# UACC-257 melanoma = system: UACC-257 melanoma
# UACC-62 melanoma = system: UACC-62 melanoma
smiles,measurement,setting,value
CO[C@H]1CSS[C@@H]1Cn1nc(-c2ccc(Oc3ccccc3)cc2)c2c(N)ncnc21,GI50,786-0 renal,17.4 µM
same,TGI,786-0 renal,58 µM
same,GI50,A498 renal,17.7 µM
same,TGI,A498 renal,63.9 µM
same,GI50,A549 NSCLC,4.37 µM
same,TGI,A549 NSCLC,> 100 µM
same,GI50,ACHN renal,4.5 µM
same,TGI,ACHN renal,37.3 µM
same,GI50,BT-549 breast,18.4 µM
same,TGI,BT-549 breast,34.6 µM
same,GI50,CAKI-1 renal,8.17 µM
same,TGI,CAKI-1 renal,74.7 µM
same,GI50,CCRF-CEM leukemia,4.49 µM
same,TGI,CCRF-CEM leukemia,22.3 µM
same,GI50,COLO 205 colon,11.3 µM
same,TGI,COLO 205 colon,24.7 µM
same,GI50,DU-145 prostate,13.7 µM
same,TGI,DU-145 prostate,> 100 µM
same,GI50,EKVX NSCLC,4.87 µM
same,TGI,EKVX NSCLC,30.1 µM
same,GI50,HCC-2998 colon,4.31 µM
same,TGI,HCC-2998 colon,18 µM
same,GI50,HCT-116 colon,4.19 µM
same,TGI,HCT-116 colon,15.9 µM
same,GI50,HCT-15 colon,6.09 µM
same,TGI,HCT-15 colon,32.6 µM
same,GI50,HL-60(TB) leukemia,4.16 µM
same,TGI,HL-60(TB) leukemia,17.6 µM
same,GI50,HOP-62 NSCLC,3.25 µM
same,TGI,HOP-62 NSCLC,26.9 µM
same,GI50,HOP-92 NSCLC,5.03 µM
same,TGI,HOP-92 NSCLC,29.3 µM
same,GI50,HS 578T breast,14.2 µM
same,TGI,HS 578T breast,68.3 µM
same,GI50,HT29 colon,4.28 µM
same,TGI,HT29 colon,18.1 µM
same,GI50,IGROV1 ovarian,8.69 µM
same,TGI,IGROV1 ovarian,35.3 µM
same,GI50,K-562 leukemia,2.83 µM
same,TGI,K-562 leukemia,14.4 µM
same,GI50,KM12 colon,5.51 µM
same,TGI,KM12 colon,28 µM
same,GI50,LOX IMVI melanoma,8.01 µM
same,TGI,LOX IMVI melanoma,20.7 µM
same,GI50,M14 melanoma,1.86 µM
same,TGI,M14 melanoma,3.78 µM
same,GI50,MALME-3M melanoma,9.3 µM
same,TGI,MALME-3M melanoma,23.1 µM
same,GI50,MCF7 breast,3.84 µM
same,TGI,MCF7 breast,20.6 µM
same,GI50,MDA-MB-435,2 µM
same,TGI,MDA-MB-435,4.28 µM
same,GI50,MDA-MB-468 breast,3.06 µM
same,TGI,MDA-MB-468 breast,12.9 µM
same,GI50,MOLT-4 leukemia,1.84 µM
same,TGI,MOLT-4 leukemia,4.93 µM
same,GI50,NCI-H226 lung,9.1 µM
same,TGI,NCI-H226 lung,50.3 µM
same,GI50,NCI-H23 lung,8.51 µM
same,TGI,NCI-H23 lung,42.1 µM
same,GI50,NCI-H460 lung,2.69 µM
same,TGI,NCI-H460 lung,7.89 µM
same,GI50,NCI-H522 lung,11 µM
same,TGI,NCI-H522 lung,27.2 µM
same,GI50,NCI/ADR-RES ovarian,12.8 µM
same,TGI,NCI/ADR-RES ovarian,64.6 µM
same,GI50,OVCAR-3 ovarian,7.82 µM
same,TGI,OVCAR-3 ovarian,30.5 µM
same,GI50,OVCAR-4 ovarian,18.4 µM
same,TGI,OVCAR-4 ovarian,> 100 µM
same,GI50,OVCAR-5 ovarian,11.4 µM
same,TGI,OVCAR-5 ovarian,41.3 µM
same,GI50,OVCAR-8 ovarian,7.26 µM
same,TGI,OVCAR-8 ovarian,53.7 µM
same,GI50,PC-3 prostate,18 µM
same,TGI,PC-3 prostate,75.1 µM
same,GI50,RPMI-8226 leukemia,13.5 µM
same,TGI,RPMI-8226 leukemia,51.4 µM
same,GI50,RXF 393 renal,6.13 µM
same,TGI,RXF 393 renal,25.3 µM
same,GI50,SF-268 CNS,4.22 µM
same,TGI,SF-268 CNS,> 100 µM
same,GI50,SF-295 CNS,20.6 µM
same,TGI,SF-295 CNS,63.4 µM
same,GI50,SF-539 CNS,14.4 µM
same,TGI,SF-539 CNS,49.2 µM
same,GI50,SK-MEL-2 melanoma,3.99 µM
same,TGI,SK-MEL-2 melanoma,15 µM
same,GI50,SK-MEL-28 melanoma,2.75 µM
same,TGI,SK-MEL-28 melanoma,8.16 µM
same,GI50,SK-MEL-5 melanoma,3.21 µM
same,TGI,SK-MEL-5 melanoma,12.2 µM
same,GI50,SK-OV-3 ovarian,2.38 µM
same,TGI,SK-OV-3 ovarian,7.36 µM
same,GI50,SN12C renal,6.52 µM
same,TGI,SN12C renal,27.3 µM
same,GI50,SNB-19 CNS,5.96 µM
same,TGI,SNB-19 CNS,> 100 µM
same,GI50,SNB-75 CNS,18.8 µM
same,TGI,SNB-75 CNS,75.3 µM
same,GI50,SW-620 colon,14.6 µM
same,TGI,SW-620 colon,> 100 µM
same,GI50,T-47D breast,2.81 µM
same,TGI,T-47D breast,20.8 µM
same,GI50,TK-10 renal,8.05 µM
same,TGI,TK-10 renal,25.7 µM
same,GI50,U251 CNS,6.89 µM
same,TGI,U251 CNS,55.2 µM
same,GI50,UACC-257 melanoma,2.98 µM
same,TGI,UACC-257 melanoma,12 µM
same,GI50,UACC-62 melanoma,2.82 µM
same,TGI,UACC-62 melanoma,12.7 µM

# Reference: PubChem BioAssay (NCI)
